7 compounds from US5801270A, “Amine derivative and detergent composition containing the same” (Kao Corporation, priority 1993, dated 1998) can be followed below.

Data set [1] can be described thus: Irritativeness and feeling of the compound on the user's skin and hair. As to conditions: in words.
A further data set relates to SIRC cells. In words: Cytotoxic effect on SIRC cells (Giemsa stain, 48 hours). In kind it is cell-based, rabbit. To be noted: 48 hours culture, 655 nm. The protocol:
(§1) The cytotoxic effect of the compounds according to the present invention was tested in accordance with the following method.
(§2) Four days prior to exposure to a substance to be tested, SIRC cells (established cell line of fibroblasts in the epithelial parenchymal layer of a rabbit eye) were disseminated on a 96-well plate in a concentration of 3×10^3 cells/well to culture them under conditions of 37° C. and 5% CO2.
(§3) The test substance was dissolved in physiological saline to give a concentration of 1 wt. % or 10 wt. %. This solution was diluted with a culture medium. After the thus-obtained test solution was added to the culture solution to conduct culture for 48 hours, the culture solution was washed twice with PBS (pH 7.4) and fixed in methanol to stain with a Giemsa stain. After washing and drying, a mixture of 1N HCl/ethanol (1/9) was added to extract the stained solution, followed by measurement by means of a microplate reader (655 nm). The concentration at which […] was expressed as IC50 (ppm).

Test in data set [2]: as above
In kind it is cell-based, rabbit. To be noted: rabbit, 48 hours culture, 655 nm, read-out: IC50. The protocol: as §1, §2, §3

With `CCCCCCCCN(CC(O)CN(CCCCCCCC)C(=O)CCC(=O)[O-])CC(O)CN(CCCCCCCC)C(=O)CCC(=O)[O-].[Na+].[Na+]` (stereo not drawn), the irritativeness entry in data set [1] is on record as “low”.

As to `CCCCCCCCCCCCN(CCOS(=O)(=O)O)CC(CN(CCCCCCCCCCCC)CC(CN(CCCCCCCCCCCC)CC(CN(CCCCCCCCCCCC)CC(CN(CCCCCCCCCCCC)CCOS(=O)(=O)O)OS(=O)(=O)O)OS(=O)(=O)O)OS(=O)(=O)O)OS(=O)(=O)O` (stereo not drawn) [Example 11, sodium 3,7,11,15,19-pentadodecyl-3,7,11,15,19-pentaaza-1,5,9,13,17,21-heneicosanehexasulfate], the IC50 in the data set on SIRC cells is given as over 1000 ppm. Further, the irritativeness result in data set [1] was “low”.

`CCCCCCCCN(CC(=O)O)CC(O)CN(CCCC)CC(O)CN(CCCCCCCC)CC(=O)O` (stereo not drawn) [Example 8, 6-butyl-4,8-dihydroxy-2,10-dioctyl-2,6,10-triaza-1,11-undecanedicarboxylicacid]: the irritativeness entry in data set [1] is listed as “low”.

`CCCCCCCCCCCCN(CCOS(=O)(=O)O)CC(CN(CCCCCCCCCCCC)CC(CN(CCCCCCCCCCCC)CCOS(=O)(=O)O)OS(=O)(=O)O)OS(=O)(=O)O` (stereo not drawn) [Example 10, sodium 3,7,11-tridodecyl-3,7,11-triaza-1,5,9,13-tridecanetetrasulfate]: in data set [2], the CC50 at 48 h was found to be 790 µg/mL. The irritativeness result in data set [1] is on record as “low”.

`CCCCCCCCCCCCOS(=O)(=O)[O-].[Na+]` [Sodium dodecyl sulfate, reference compound]: the CC50 at 48 h in data set [2] came out at 82 µg/mL.

Regarding `CCCCCCCCN(CC(O)CN(CCCCCCCC)C(=O)CC(C(=O)O)S(=O)(=O)[O-])CC(O)CN(CCCCCCCC)C(=O)CC(C(=O)O)S(=O)(=O)[O-].[Na+].[Na+]` (stereo not drawn), the irritativeness entry in data set [1] is recorded as “low”.

Consider “6-butyl-4,8-dihydroxy-2,10-dioctyl-2,6,10-triaza-1,1,11,11-undecanetetracarboxylic acid [Example 12]”, for which, in data set [1], the irritativeness result is recorded as “low”.
